This note sets out measurements from ChEMBL document CHEMBL1201862, “PubChem BioAssay data set” (2004).

Usually IC50 stands for the concentration that gives 50% inhibition. As usually defined, the EC50 is the concentration giving half of the maximal effect. Broadly, the CC50 is the concentration at which the toxic effect on the cells reaches its halfway point.

The source made the active and inactive calls. A value given as a limit tells only on which side of the number the result lay.

The target in one data set is Cytochrome P450 3A4 (Homo sapiens, UniProt P08684).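 Further: CYP3A4 tested as one member of a cytochrome P450 panel screen.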
The test system of the next data set is Staphylococcus aureus. Put plainly: Inhibitors of Bacterial Quorum Sensing Structure Activity Relationship (SAR) Analysis: Dose Response Assay. [Related pubchem assays: 700, 527 ]. The format is functional, organism-based.
Data set [1] addresses Heat shock 70 kDa protein 1A (Homo sapiens, UniProt P0DMV8). Put plainly: inhibition of Hsp70 binding activity – biochemical, fluorescence polarization, SAR follow-up (AID 1072). On the technique in general: In fluorescence polarisation assays a small probe gives low polarisation when free and higher when bound to something large.
The target of data set [2] is Heat shock cognate 71 kDa protein (Homo sapiens, UniProt P11142). As to the kind of experiment: In Vitro Hsc70 Dose Response Fluorescence Polarization Assay. [Related pubchem assays: 1072 ].
In a further data set the target is Bcl-2-like protein 10 (Homo sapiens, UniProt Q9HD36). Put plainly: Concentration-response of Bcl-B inhibitors by biochemical FP with TR3 (AID 1243). The format is functional.
Data set [3] has as its target T1, Dual specificity protein phosphatase 6 (Rattus norvegicus, UniProt Q64346).
T1 sequence (Q64346 whole entry): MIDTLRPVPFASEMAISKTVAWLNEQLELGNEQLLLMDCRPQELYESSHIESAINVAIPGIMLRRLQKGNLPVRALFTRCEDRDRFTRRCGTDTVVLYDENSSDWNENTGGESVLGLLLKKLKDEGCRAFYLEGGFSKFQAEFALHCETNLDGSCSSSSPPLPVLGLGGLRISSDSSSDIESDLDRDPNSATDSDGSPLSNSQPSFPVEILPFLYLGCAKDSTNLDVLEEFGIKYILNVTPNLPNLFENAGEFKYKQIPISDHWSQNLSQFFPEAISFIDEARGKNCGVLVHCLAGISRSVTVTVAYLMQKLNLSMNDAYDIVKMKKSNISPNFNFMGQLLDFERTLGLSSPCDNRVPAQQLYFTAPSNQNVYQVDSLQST
The format is functional.

In data set [4] the target is T1, Dual specificity protein phosphatase 6.
Data set [5] deals with Glyceraldehyde-3-phosphate dehydrogenase (Homo sapiens, UniProt P04406).
Data set [6] concerns the target T2, Tyrosine-protein phosphatase non-receptor type 7 (Homo sapiens, UniProt P35236).
T2 sequence (P35236 whole entry): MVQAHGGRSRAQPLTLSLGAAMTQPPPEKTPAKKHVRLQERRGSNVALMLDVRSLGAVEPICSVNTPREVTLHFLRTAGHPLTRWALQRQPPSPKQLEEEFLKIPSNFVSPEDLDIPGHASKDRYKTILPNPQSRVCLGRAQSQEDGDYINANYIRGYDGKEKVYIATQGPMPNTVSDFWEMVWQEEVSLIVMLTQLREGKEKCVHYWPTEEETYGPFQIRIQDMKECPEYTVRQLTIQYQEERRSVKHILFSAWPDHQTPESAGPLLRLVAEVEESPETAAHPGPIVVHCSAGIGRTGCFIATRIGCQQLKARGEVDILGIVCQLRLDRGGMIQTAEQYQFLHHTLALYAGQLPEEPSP
The data set is classed as functional.

The target of the next data set is Vasopressin V1a receptor (Homo sapiens, UniProt P37288). As to the kind of experiment: Counterscreen for Oxytocin Receptor (OXTR) agonists: Fluorescence-based cell-based high throughput dose response assay to identify agonists of the vasopressin 1 receptor (V1R). [Related pubchem assays: 2435 (Primary screen (OXTR agonists in singlicate)), 434991 (Counterscreen (V1R agonists in triplicate)), 2482 (Summary (OXTR agonists)) …. The format is functional.

Data set [7] can be described thus: alpha-synuclein stem-loop luciferase translation blockers – H4 neuroglioma cells, luminescence, confirmation (AID 1988). The format is functional, cell-based.
For the next data set, the target named is Oxytocin receptor (Homo sapiens, UniProt P30559). Put plainly: Fluorescence-based cell-based high throughput dose response assay for agonists of the Oxytocin Receptor (OXTR). [Related pubchem assays: 2435 (Primary screen (OXTR agonists in singlicate)), 434991 (Counterscreen (V1R agonists in triplicate)), 2482 (Summary (OXTR agonists)), 434963 (Confirmation screen (OXTR agonists in triplicate))]. The data set is classed as functional. Background: Counterscreens check selectivity or assay interference.

Data set [8] is described as follows: viability of uninfected HEp-2 cells – cell-based, HTS, cytotoxicity control for RSV inhibitor project, dose response (AID 2410). The format is functional. Conditions: human respiratory syncytial virus.
The nature of data set [9]: Luminescence Cell-Based Dose Response HTS to Identify Inhibitors of 5'UTR Stem-Loop Driven Prion Protein mRNA Translation in H4 Neuroglioblastoma Cells. [Related pubchem assays: 1827 (Project Summary), 1813 (Primary HTS)]. The format is functional.
Data set [10] addresses Beta-2 adrenergic receptor (Homo sapiens, UniProt P07550). As to the kind of experiment: ADRB2 activation measured by internalization – cell-based, FAP fluorogen, flow cytometry, cherry pick 1, dose response (AID 588763). The format is functional.
The nature of data set [11]: luciferase reporter signal suppression in cells – H4 neuroglioma cells, luminescence, dose response (AID 1990). The format is functional, cell-based.
A short description of data set [12]: Counterscreen for IDE inhibitors: Luminescence-based cell-based high throughput dose response assay to identify compounds that are cytotoxic to HEK cells. [Related pubchem assays: 434962 (Primary screen (IDE inhibitors in singlicate)), 449730 (Counterscreen (Cytotoxicity in triplicate)), 435028 (Confirmation (IDE inhibitors in triplicate)) …. The format is functional. As to conditions: HEK293.

Another data set has as its target T3, Insulin-degrading enzyme (Homo sapiens, UniProt P14735).
T3 sequence (P14735 whole entry): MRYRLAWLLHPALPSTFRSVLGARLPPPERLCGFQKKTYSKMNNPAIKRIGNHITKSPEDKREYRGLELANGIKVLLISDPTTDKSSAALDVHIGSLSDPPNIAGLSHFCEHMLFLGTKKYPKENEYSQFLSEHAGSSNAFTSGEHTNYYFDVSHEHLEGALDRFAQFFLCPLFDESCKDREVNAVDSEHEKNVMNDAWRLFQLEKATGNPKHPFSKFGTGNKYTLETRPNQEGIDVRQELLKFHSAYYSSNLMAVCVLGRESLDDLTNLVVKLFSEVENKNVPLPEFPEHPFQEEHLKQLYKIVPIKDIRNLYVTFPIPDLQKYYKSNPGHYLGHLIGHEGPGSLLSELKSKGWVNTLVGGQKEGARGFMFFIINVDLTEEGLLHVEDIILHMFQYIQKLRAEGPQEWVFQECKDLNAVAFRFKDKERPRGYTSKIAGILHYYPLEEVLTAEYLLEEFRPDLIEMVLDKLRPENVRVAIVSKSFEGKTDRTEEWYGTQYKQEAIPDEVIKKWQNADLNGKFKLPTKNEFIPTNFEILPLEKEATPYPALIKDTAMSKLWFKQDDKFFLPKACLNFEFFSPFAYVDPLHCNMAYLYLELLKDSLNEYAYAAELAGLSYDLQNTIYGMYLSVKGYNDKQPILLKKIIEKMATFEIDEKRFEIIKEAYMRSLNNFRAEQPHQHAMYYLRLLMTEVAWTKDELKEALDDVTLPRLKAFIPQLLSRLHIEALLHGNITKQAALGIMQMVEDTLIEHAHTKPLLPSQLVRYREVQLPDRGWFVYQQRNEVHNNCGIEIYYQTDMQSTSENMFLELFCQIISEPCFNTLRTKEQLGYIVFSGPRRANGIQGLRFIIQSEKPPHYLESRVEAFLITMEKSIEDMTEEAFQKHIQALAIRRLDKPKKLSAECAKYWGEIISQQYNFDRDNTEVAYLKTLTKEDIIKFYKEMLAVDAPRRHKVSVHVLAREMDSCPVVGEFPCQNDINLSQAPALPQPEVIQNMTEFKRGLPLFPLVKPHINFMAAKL
Put plainly: Dose Response: Fluorescence polarization-based cell-based high throughput dose response assay for inhibitors of insulin-degrading enzyme (IDE). [Related pubchem assays: 434962 (Primary screen (IDE inhibitors in singlicate)), 449730 (Counterscreen (Cytotoxicity in triplicate)), 435028 (Confirmation (IDE inhibitors in triplicate)), 434984 (Summary …. The format is functional.

The target in data set [13] is T4, Alkaline phosphatase, tissue-nonspecific isozyme (Homo sapiens, UniProt P05186).
T4 sequence (P05186 whole entry): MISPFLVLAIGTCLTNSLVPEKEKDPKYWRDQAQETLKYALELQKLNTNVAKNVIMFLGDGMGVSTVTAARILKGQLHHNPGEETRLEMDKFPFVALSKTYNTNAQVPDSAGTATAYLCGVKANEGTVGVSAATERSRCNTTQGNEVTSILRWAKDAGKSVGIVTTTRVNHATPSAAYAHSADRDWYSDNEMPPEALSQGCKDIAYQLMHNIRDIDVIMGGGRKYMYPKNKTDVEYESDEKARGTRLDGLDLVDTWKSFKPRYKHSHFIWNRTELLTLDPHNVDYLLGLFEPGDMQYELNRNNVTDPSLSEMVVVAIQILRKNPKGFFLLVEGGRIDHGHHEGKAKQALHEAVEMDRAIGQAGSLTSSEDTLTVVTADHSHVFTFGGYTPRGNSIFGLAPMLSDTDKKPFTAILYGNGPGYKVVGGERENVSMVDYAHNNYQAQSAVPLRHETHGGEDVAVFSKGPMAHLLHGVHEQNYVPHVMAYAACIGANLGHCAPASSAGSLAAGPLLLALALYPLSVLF

Chain of Heat shock cognate 71 kDa protein (P11142 whole entry): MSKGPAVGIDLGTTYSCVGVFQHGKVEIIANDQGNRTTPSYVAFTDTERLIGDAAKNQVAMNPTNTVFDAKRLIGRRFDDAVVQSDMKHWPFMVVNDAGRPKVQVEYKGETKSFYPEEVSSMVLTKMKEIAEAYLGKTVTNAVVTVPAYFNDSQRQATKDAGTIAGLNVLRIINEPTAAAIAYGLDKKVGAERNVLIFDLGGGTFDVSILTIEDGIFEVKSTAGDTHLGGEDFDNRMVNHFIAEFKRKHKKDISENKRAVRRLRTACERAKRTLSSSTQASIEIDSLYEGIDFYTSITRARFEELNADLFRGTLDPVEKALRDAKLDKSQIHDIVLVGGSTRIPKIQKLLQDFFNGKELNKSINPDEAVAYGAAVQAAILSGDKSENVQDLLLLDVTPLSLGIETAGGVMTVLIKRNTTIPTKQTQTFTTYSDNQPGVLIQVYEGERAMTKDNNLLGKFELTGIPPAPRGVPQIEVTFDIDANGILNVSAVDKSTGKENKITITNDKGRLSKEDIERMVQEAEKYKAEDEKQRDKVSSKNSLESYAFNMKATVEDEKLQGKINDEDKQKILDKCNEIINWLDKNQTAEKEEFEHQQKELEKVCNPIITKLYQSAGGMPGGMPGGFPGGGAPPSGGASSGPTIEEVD
Chain of Bcl-2-like protein 10 (Q9HD36 whole entry): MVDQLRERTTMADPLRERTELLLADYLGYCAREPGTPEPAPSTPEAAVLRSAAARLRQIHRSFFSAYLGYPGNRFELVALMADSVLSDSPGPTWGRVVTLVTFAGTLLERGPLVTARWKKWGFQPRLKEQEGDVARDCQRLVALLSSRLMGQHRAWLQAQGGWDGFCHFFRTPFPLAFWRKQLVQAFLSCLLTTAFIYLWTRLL
Chain of Heat shock 70 kDa protein 1A (P0DMV8 whole entry): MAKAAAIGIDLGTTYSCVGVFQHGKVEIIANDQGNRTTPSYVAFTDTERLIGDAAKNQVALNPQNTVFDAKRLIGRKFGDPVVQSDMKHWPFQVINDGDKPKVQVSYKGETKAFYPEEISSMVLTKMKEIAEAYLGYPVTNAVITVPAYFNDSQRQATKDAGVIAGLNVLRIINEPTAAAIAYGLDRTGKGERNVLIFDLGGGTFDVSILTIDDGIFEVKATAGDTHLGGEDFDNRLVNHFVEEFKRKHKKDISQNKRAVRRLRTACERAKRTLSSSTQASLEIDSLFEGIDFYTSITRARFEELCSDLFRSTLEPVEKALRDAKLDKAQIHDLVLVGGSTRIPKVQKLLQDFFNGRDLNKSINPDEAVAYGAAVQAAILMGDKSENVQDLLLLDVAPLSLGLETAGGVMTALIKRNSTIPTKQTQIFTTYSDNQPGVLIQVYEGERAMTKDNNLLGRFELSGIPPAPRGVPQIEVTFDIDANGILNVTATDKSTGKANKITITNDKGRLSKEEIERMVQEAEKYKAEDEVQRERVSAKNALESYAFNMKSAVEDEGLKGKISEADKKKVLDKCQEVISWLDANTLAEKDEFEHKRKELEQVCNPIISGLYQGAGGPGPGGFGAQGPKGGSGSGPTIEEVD
Chain of Cytochrome P450 3A4 (P08684 whole entry): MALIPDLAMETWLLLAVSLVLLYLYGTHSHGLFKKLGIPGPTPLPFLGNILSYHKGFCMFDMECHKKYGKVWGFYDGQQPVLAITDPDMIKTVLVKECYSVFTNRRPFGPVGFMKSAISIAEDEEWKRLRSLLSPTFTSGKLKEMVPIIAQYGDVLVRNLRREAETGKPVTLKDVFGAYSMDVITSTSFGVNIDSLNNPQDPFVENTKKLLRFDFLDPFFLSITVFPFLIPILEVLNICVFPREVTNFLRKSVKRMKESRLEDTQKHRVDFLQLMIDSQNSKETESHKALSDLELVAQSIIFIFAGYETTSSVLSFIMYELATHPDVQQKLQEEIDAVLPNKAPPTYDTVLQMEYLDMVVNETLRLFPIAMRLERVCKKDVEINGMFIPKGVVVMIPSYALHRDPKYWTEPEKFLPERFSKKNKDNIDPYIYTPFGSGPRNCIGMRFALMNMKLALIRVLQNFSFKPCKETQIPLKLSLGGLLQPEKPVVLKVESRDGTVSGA
Chain of Glyceraldehyde-3-phosphate dehydrogenase (P04406 whole entry): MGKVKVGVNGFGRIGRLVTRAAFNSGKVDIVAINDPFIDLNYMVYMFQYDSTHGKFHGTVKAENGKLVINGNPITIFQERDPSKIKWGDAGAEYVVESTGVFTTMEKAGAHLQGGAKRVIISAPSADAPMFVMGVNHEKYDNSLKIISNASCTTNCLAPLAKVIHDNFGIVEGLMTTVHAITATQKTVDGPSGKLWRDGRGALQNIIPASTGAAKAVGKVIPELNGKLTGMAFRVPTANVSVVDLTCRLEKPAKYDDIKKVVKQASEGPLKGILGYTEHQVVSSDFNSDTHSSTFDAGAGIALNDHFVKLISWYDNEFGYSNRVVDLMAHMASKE
Chain of Beta-2 adrenergic receptor (P07550 whole entry): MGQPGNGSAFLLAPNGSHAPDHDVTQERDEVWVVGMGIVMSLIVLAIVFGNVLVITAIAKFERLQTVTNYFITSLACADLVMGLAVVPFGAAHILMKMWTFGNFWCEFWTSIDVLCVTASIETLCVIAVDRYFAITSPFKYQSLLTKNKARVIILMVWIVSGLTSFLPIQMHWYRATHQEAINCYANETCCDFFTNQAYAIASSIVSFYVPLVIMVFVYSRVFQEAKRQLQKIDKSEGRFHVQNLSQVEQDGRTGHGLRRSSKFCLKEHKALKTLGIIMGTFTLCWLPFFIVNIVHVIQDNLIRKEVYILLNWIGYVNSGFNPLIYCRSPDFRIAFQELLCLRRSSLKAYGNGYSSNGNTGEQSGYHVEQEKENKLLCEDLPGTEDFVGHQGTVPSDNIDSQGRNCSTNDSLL
Chain of Vasopressin V1a receptor (P37288 whole entry): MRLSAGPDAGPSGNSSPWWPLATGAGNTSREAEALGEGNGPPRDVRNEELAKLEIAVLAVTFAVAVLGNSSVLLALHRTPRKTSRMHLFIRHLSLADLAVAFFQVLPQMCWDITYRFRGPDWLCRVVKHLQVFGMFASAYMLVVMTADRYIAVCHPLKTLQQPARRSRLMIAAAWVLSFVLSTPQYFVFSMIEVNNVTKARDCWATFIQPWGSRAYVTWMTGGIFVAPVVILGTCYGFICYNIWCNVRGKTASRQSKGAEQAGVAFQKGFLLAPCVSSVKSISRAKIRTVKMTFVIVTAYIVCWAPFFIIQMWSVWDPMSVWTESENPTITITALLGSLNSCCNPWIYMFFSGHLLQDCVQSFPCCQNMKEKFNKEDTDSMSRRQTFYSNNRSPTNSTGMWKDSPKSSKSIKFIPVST
Chain of Oxytocin receptor (P30559 whole entry): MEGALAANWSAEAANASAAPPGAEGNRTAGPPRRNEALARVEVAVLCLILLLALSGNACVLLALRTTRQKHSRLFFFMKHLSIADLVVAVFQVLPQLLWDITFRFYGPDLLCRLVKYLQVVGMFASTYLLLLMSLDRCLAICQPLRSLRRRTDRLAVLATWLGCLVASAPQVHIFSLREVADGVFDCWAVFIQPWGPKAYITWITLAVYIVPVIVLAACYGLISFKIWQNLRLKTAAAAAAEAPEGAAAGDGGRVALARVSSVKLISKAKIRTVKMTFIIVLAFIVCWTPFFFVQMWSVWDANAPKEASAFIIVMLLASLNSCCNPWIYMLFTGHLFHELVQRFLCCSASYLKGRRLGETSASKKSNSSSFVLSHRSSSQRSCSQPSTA

Take `Cc1cccc(Nc2ccccc2C(=O)O)c1C` [MEFENAMIC ACID]: the AC50 entry at Cytochrome P450 3A4 is reported as “inconclusive”. Also, in the data set on Staphylococcus aureus, the IC50 is 1.34 µM (active).

`CC(=O)Nc1ccc2c(c1)C1C=CCC1C(C(=O)O)N2` (centres undefined): the IC50 was 35.2 µM (active) in data set [1]; > 100 µM (not active) in [2]; > 100 µM (inactive) in data set [3]; > 100 µM (inactive) in data set [4]; > 100 µM (not active) in data set [5]; 21 µM (active) in data set [6]. Moreover, on Bcl-2-like protein 10, the EC50 was 4.44 µM (active).

Take `COc1ccc(CCNCC(O)Cn2c3ccccc3c3ccccc32)cc1OC` (centres undefined): the EC50 was 12.7 µM (not active) on Vasopressin V1a receptor; > 120 µM (not active) in data set [7]; 18.8 µM (not active) at Oxytocin receptor; > 120 µM (not active) in [9]; 12.5 µM (inactive) in data set [10]; 8.76 µM (active) in data set [11]. For the same compound, the CC50 in data set [8] is 13.7 µM (active).

For the compound `Oc1sc(/C=N/c2ccc(F)cc2)c2ccccc12`, the IC50 is on record as > 55.7 µM (not active) in [12] and > 55.9 µM (not active) against Insulin-degrading enzyme.

Take `C=CCNC(=S)NNC(=O)C(CCC(C)C)CC(C)O` (centres undefined): the EC50 in data set [13] is 43.5 µM (active).
